The test deals with extracellular noradrenaline (NE) in the nucleus accumbens (NAcc). Description: In vivo microdialysis in rat nucleus accumbens, norepinephrine. The arrangement: species or system Sprague Dawley rats. The conditions noted are these: 7 mg/kg I.P.; for time of peak NE level / peak NE level: rat NAcc microdialysis; for peak NE level: baseline = 100%; for Norepinephrine (NE) level (% from baseline): rat NAcc. On the procedure: Methods and Procedure: This study was conducted in compliance with previously described procedures to assure data integrity, adherence to GLP regulations, and standard preclinical study and surgery procedures. The in vivo microdialysis technique was applied to measure the over-time variations of DA, 5-HT, and NE extracellular (EC) concentrations in conscious, freely-moving Sprague Dawley rats. Levels of the neurotransmitters in microdialysis samples were determined using LC-MS/MS analysis. The experiment was also conducted with MDMA for comparative purposes.
As it relates to cannula implantation, the rats were anesthetized with isoflurane 4% in oxygen (2-2.5 L/min), then the isoflurane concentration 2-2.5% was maintained via a nose cone adapted to the stereotaxic apparatus. The rats were treated with meloxicam (0.2 mg/kg, subcutaneously, sc; Meloxidolor) and amoxicilline (150 mg/kg, sc, Betamox LA). The skull was then shaved and disinfected. Rats were then placed in a stereotaxic apparatus for small animals. One vertical guide cannula was inserted through a 1 mm hole drilled on the exposed skull. Coordinates, with respect to the bregma to target specific brain areas, followed indications from stereotaxic atlas of the rat brain. Specifically a guide cannula (MAB 4.12.IC, Agn Tho's AB, Lidinga, Sweden) was inserted in the NAcc (anteroposterior+1.6; lateral −1.6; dorsoventral −6.0). The guide cannula was then secured with dental cement and 2-4 screws. At the end of the surgery the animal was isolated in a single cage during recovery, for a period of at least one week, during which animal health conditions were checked twice daily and the weight recorded twice a week. Animals continued to be housed singly throughout the experiment. One day before the experiment the cannula stylet was removed and a microdialysis probe with a dialyzing length of 2 mm (MAB 4.12.2 Cu, Agn Tho's AB, Lidingo, Sweden) was inserted. Probes can be re-used 2 times for 2 experimental sessions after appropriate cleaning with fresh milliQ water.
Post-surgery, the rats were maintained in a heating chamber prior to waking up in order to avoid hypothermia that could be caused by anaesthesia. 5 mL of physiologic solution was subcutaneously administered immediately after surgery, and once/day for 2-3 days, if signs of dehydration are noticed. Meloxicam (Meloxidolor) 0.2 mg/kg was again administered subcutaneously the day after surgery as well as after 48 h after surgery together with Amoxicilline Long Acting (Betamox LA) 150 mg/kg. Health status and body weight was checked every day during the first week.
The animals were treated with the therapeutic compounds, and MDMA, or their vehicle (saline) according to a Latin square design over 5 separate experimental days (one day/week). The treatments were administered in a volume of 1 mL/kg intraperitoneally.
On the day of the experiment, each animal was taken into the laboratory in its home cage. Inlet tubing of the probe was attached to a dual quartz-lined two channel liquid swivel mounted on a low mass spring counterbalance arm which, in turn, was connected to a gas-tight syringe on a microinfusion pump. […] An equilibration period of about two hours of perfusion was allowed before collecting samples. Following the equilibration period, 4 basal samples were collected for each experimental animal followed by further 10 post-treatment samples. Samples were collected every 20 minutes (up to 3 hours and 20 minutes post-treatment) by means of a refrigerated auto-sampler (Univentor 820 Microsampler, AgnTho's, Sweden) maintained at +8 “C. At the end of all experimental sessions, 2 μL of 0.1% methylene blue solution was injected through the microdialysis probe, animals were euthanized, and their brains removed to confirm the correct probe-position.
As mentioned, the concentration of DA, 5-HT and NE in CSF samples were determined using an optimized method based on LC-MS/MS analysis. […]

The source of these data is patent publication US20260159474A1, “Aminoindane Compounds and Compositions and Methods of Their Therapeutic Use” (Solvonis Therapeutics Ireland Holdings Limited, priority 2021, published 2026).

SMILES strings stand for the structures.

As for `COC(=O)c1ccc2c(c1)CC(N)C2` (stereo not drawn) [CMP-405, 2-aminoindane-5-methylcarboxylate], the “time of peak NE level” value is 60 min and the “peak NE level” value is 188%. Further, the “Norepinephrine (NE) level (% from baseline)” value (0 min (basal sample)) is reported as 101%. For the same molecule, the “Norepinephrine (NE) level (% from baseline)” value (20 min post-admin) is given as 106%. Also, under “40 min post-admin”, the “Norepinephrine (NE) level (% from baseline)” value came to 167%. The “Norepinephrine (NE) level (% from baseline)” value (60 min post-admin) was found to be 188%. Besides, the “Norepinephrine (NE) level (% from baseline)” value (80 min post-admin) was found to be 147%. Further, the “Norepinephrine (NE) level (% from baseline)” value (100 min post-admin) came out at 136%. For the setting “120 min post-admin”, the “Norepinephrine (NE) level (% from baseline)” value is on record as 125%. Further, where the note is “140 min post-admin”, the “Norepinephrine (NE) level (% from baseline)” value came out at 107%. For the same molecule, the “Norepinephrine (NE) level (% from baseline)” value (160 min post-admin) came to 122%. In addition, the “Norepinephrine (NE) level (% from baseline)” value (180 min post-admin) is 105%. Also, the “Norepinephrine (NE) level (% from baseline)” value (200 min post-admin) was determined as 106%. In addition, where the note is “−20 min (basal sample)”, the “Norepinephrine (NE) level (% from baseline)” value is 99%.
With `COc1ccc2c(c1)CC(N)C2` (stereo not drawn) [MEAI, 5-methoxy-2-aminoindane], the “time of peak NE level” value was determined as 40 min and the “peak NE level” value was found to be 366%. Moreover, the “Norepinephrine (NE) level (% from baseline)” value (0 min (basal sample)) is recorded as 97%. Moreover, the “Norepinephrine (NE) level (% from baseline)” value (20 min post-admin) worked out at 132%. For the same molecule, the “Norepinephrine (NE) level (% from baseline)” value (40 min post-admin) is on record as 366%. The “Norepinephrine (NE) level (% from baseline)” value (60 min post-admin) is on record as 295%. For the same molecule, the “Norepinephrine (NE) level (% from baseline)” value (80 min post-admin) is 208%. Moreover, the “Norepinephrine (NE) level (% from baseline)” value (100 min post-admin) turned out to be 194%. For the same molecule, for the setting “120 min post-admin”, the “Norepinephrine (NE) level (% from baseline)” value is reported as 187%. For the same molecule, the “Norepinephrine (NE) level (% from baseline)” value (140 min post-admin) was 167%. Further, the “Norepinephrine (NE) level (% from baseline)” value (160 min post-admin) was determined as 140%. Also, for the setting “180 min post-admin”, the “Norepinephrine (NE) level (% from baseline)” value is listed as 149%. Also, the “Norepinephrine (NE) level (% from baseline)” value (200 min post-admin) is on record as 133%. In addition, the “Norepinephrine (NE) level (% from baseline)” value (−20 min (basal sample)) is recorded as 103%.
In the case of `CNC(C)Cc1ccc2c(c1)OCO2` (stereo not drawn) [MDMA], the “time of peak NE level” value is 40 min and the “peak NE level” value is reported as 473%. Also, the “Norepinephrine (NE) level (% from baseline)” value (0 min (basal sample)) was 100%. For the same molecule, the “Norepinephrine (NE) level (% from baseline)” value (20 min post-admin) stood at 113%. The “Norepinephrine (NE) level (% from baseline)” value (40 min post-admin) was 473%. The “Norepinephrine (NE) level (% from baseline)” value (60 min post-admin) was 457%. Moreover, the “Norepinephrine (NE) level (% from baseline)” value (80 min post-admin) is reported as 375%. Further, under “100 min post-admin”, the “Norepinephrine (NE) level (% from baseline)” value was 348%. Moreover, the “Norepinephrine (NE) level (% from baseline)” value (120 min post-admin) is reported as 350%. The “Norepinephrine (NE) level (% from baseline)” value (140 min post-admin) was determined as 320%. Further, the “Norepinephrine (NE) level (% from baseline)” value (160 min post-admin) came out at 295%. Besides, under “180 min post-admin”, the “Norepinephrine (NE) level (% from baseline)” value amounted to 275%. For the same molecule, where the note is “200 min post-admin”, the “Norepinephrine (NE) level (% from baseline)” value came to 255%. For the same molecule, the “Norepinephrine (NE) level (% from baseline)” value (−20 min (basal sample)) is on record as 100%.
